Assay results: ChEMBL document CHEMBL4627277, “Catenulisporidins A and B, 16-membered macrolides of the hygrolidin family produced by the chemically underexplored actinobacterium Catenulispora species” (Bioorg Med Chem Lett, 2020)
Active and inactive are the calls of the source. No cut-off for these calls is given here.

What was measured:
Assay type in all cases: functional, cell-based
HeLa [1] = experiment: Modulation of autophagy in human HeLa cells assessed as accumulation of p62 measured after 24 hrs by western blot analysis
HeLa [2] = experiment: Antiproliferative activity against human HeLa cells assessed as reduction in cell growth
HeLa [3] = experiment: Modulation of autophagy in human HeLa cells expressing mRFP-EGFP-LC3B assessed as induction of EGFP-LC3B puncta formation at 3 uM measured after 24 hrs by fluorescence microscopic analysis
HeLa [4] = experiment: Inhibition of autophagic flux in human HeLa cells expressing mRFP-EGFP-LC3B assessed as blockage of autophagosome-lysosome fusion by measuring accumulation of yellow puncta at 3 uM measured after 24 hrs by fluorescence microscopic analysis
HeLa [5] = experiment: Modulation of autophagy in human HeLa cells assessed as autophagosome maturation by measuring conversion of LC3B-I to LC3B-II measured after 24 hrs by western blot analysis
HeLa [6] = experiment: Modulation of autophagy in human HeLa cells expressing mRFP-EGFP-LC3B assessed as induction of EGFP-LC3B puncta formation at 0.3 uM measured after 24 hrs by fluorescence microscopic analysis
HeLa [7] = experiment: Induction of autophagy in human HeLa cells expressing mRFP-EGFP-LC3B assessed as accumulation of red and green fluorescence signals at 200 nM measured after 24 hrs by fluorescence microscopic analysis

SMILES | Activity (HeLa [1]) | IC50 (HeLa [2]) [µM] | Activity (HeLa [3]) | inhibition (HeLa [4]) | Activity (HeLa [5]) | Activity (HeLa [6]) | Activity (HeLa [7])
CC[C@H]1O[C@@](O)([C@@H](C)[C@H](O)[C@H](C)[C@H]2OC(=O)/C(C)=C/C(C)=C/[C@@H](C)[C@H]3O[C@](C)(C[C@@H]3C)[C@@H](O)/C=C/[C@@H]2OC)C[C@@H](OC(=O)/C=C/C(=O)O)[C@@H]1C | Dose-dependent effect | > 30 | Active | Active | Dose-dependent effect |  | 
CC[C@H]1O[C@@](O)([C@@H](C)[C@H](O)[C@H](C)[C@H]2OC(=O)/C(C)=C/C(C)=C/[C@@H](C)[C@@H](O)[C@@H](C)C/C(C)=C/C=C/[C@@H]2OC)C[C@@H](OC(=O)/C=C/C(=O)O)[C@@H]1C | Dose-dependent effect | 11.8 | Active | Active | Dose-dependent effect | Active | 
CO/C1=C\C(C)=C\[C@@H](C)[C@@H](O)[C@@H](C)C/C(C)=C/C=C/[C@H](OC)[C@@H]([C@@H](C)[C@@H](O)[C@H](C)[C@@]2(O)C[C@@H](O)[C@H](C)[C@@H](C(C)C)O2)OC1=O [BAFILOMYCIN A1] | Dose-dependent effect | 13 | Active | Active |  | Active | 
CC[C@H]1O[C@@](O)([C@@H](C)[C@H](O)[C@H](C)[C@H]2OC(=O)/C(C)=C/C(C)=C/[C@@H](C)[C@@H](O)[C@@H](C)C[C@@](C)(O)[C@@H](O)/C=C/[C@@H]2OC)C[C@@H](OC(=O)/C=C/C(=O)O)[C@@H]1C | Dose-dependent effect | > 30 | Active | Active | Dose-dependent effect |  | 
CCC(=O)N1CCN(c2ccc(-n3c(=O)ccc4cnc5ccc(-c6cnc7ccccc7c6)cc5c43)cc2C(F)(F)F)CC1 |  |  |  |  |  |  | Active
